Test results as given in patent publication US12156918B2, “Neuroendocrine cancer targeted therapy” (THE UAB RESEARCH FOUNDATION, priority 2018, dated 2024).
Where a SMILES comes first, the peptide text is derived from it. [ ]: non-standard residue; d: D form. The star is where a group is joined. Dolaproine = CO[C@@H]([C@@H]1CCCN1)[C@@H](C)C(=O)O; Dil = CC[C@H](C)[C@H](NC)[C@@H](CC(=O)O)OC; X1 = C[C@@H](N*)[C@@H](O)c1ccccc1; NMeV = CN[C@H](C(=O)O)C(C)C

Tests used:
BON-1 cells = assay: In vitro anti-cancer toxicity (IC50), Luminescent Cell Viability Assay; type: cell-based, human; conditions: 3-day incubation
Procedure: In vitro anti-cancer toxicity (IC50). BON cell line was utilized to compare the toxicity of ADC. 75 uL of culture media containing cells (viability >95%) with a density of 5×10^4 cells/mL was added in each well of 96-well plate. ADC or MMAE solution was sterilized by 0.2 μm filter and diluted to different concentrations with complete medium. After 4-hr incubation in regular cell culture incubator, 75 μL of ADC or MMAE with gradient concentrations were mixed with cells in the 96-well plate. The well plate was covered by another 96-well plate filled with PBS to prevent medium evaporation during treatment period. After 3-day incubation, the toxicity result was generated through Luminescent Cell Viability Assay (Promega, Madison, […]).

microtubule = assay: Microtubule de-polymerization imaging; type: cell-based, human; conditions: BON cell line
human CD8+ T cells = assay: Flow cytometry of cytokine expression in CD3/CD28 stimulated T cells; type: cell-based; conditions: 2 days incubation (100 nM elsewhere in the source)
Procedure: Therefore, our novel anti-SSTR2 mAb has great potential as a drug delivery vehicle in the form of ADC. […] Using flow cytometry, we analyze the effect of our SSTR2 mAb on the expression of cytokines in the CD3/CD28 stimulated human CD8+ T cells after incubating with mAb for 2 days.
Moreover, the possible effect of the disclosed anti-SSTR2 mAb on cytokine production in CD8^+ T cells was also tested. Post CD3/CD28 stimulation, human CD8^+ T cells were incubated with either 100 nM of SST analog (Octreotide) or 100 nM of the anti-SSTR2 mAb for 2 days. After incubation, flow cytometry was performed to analyze the expression of IL-2 and IFN-γ.

CC[C@H](C)[C@@H]([C@@H](CC(=O)N1CCC[C@H]1[C@H](OC)[C@@H](C)C(=O)N[C@H](C)[C@@H](O)c1ccccc1)OC)N(C)C(=O)[C@@H](NC(=O)[C@@H](NC)C(C)C)C(C)C [MMAE, monomethyl auristatin E] (H-[NMeV]V[Dil][Dolaproine]-X1)
IC50 (BON-1 cells): 2 nM
mechanism of NET cell proliferation inhibition (microtubule): microtubule de-polymerization

C[C@@H](O)[C@@H]1NC(=O)[C@H](CCCCN)NC(=O)[C@@H](Cc2c[nH]c3ccccc23)NC(=O)[C@H](Cc2ccccc2)NC(=O)[C@@H](NC(=O)[C@H](N)Cc2ccccc2)CSSC[C@@H](C(=O)N[C@H](CO)[C@@H](C)O)NC1=O [Octreotide]
increase of IFN-γ expression (human CD8+ T cells): 2.2 folds
increase of IL-2 expression (human CD8+ T cells): 1.6 folds
